# From US20230150974A1 (Foghorn Therapeutics Inc., priority 2020, published 2023)
# Where a name gives a salt, the structure may show the parent alone.
# Columns and labels:
# HiBiT-BRM = molecular target: T1, HiBiT-BRM (Homo sapiens, UniProt P51531); test: HiBiT-BRM cell-based degradation assay (Nano-Glo HiBiT Lytic Detection); conditions: HeLa cells expressing HiBiT-BRM, 24 h; for DC50: read-out: BRM HiBit Degradation IC50
# T1 construct: expressed in transfected cells
# Method in brief: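 Luminescence from HiBiT–LgBiT complementation in lysates of a stable HiBiT-BRM HeLa line measured after 24 h compound exposure. Degradation expressed as percent relative to DMSO-treated cells and cells given 2 μM of a known BRM/BRG1 degrader.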
# HiBit-BRG1 = molecular target: T2, HiBit-BRG1 (Homo sapiens, UniProt P51532); test: HiBit-BRG1 cell-based degradation assay (Nano-Glo HiBiT Lytic Detection); conditions: HeLa cells expressing HiBit-BRG1 and LgBit, 24 h; for DC50: read-out: BRG1 HiBit Degradation IC50; for Dmax: read-out: BRG1 HiBit Degradation Maximum (%)
# T2 construct: expressed in transfected cells
# T2 sequence (P51532 whole entry): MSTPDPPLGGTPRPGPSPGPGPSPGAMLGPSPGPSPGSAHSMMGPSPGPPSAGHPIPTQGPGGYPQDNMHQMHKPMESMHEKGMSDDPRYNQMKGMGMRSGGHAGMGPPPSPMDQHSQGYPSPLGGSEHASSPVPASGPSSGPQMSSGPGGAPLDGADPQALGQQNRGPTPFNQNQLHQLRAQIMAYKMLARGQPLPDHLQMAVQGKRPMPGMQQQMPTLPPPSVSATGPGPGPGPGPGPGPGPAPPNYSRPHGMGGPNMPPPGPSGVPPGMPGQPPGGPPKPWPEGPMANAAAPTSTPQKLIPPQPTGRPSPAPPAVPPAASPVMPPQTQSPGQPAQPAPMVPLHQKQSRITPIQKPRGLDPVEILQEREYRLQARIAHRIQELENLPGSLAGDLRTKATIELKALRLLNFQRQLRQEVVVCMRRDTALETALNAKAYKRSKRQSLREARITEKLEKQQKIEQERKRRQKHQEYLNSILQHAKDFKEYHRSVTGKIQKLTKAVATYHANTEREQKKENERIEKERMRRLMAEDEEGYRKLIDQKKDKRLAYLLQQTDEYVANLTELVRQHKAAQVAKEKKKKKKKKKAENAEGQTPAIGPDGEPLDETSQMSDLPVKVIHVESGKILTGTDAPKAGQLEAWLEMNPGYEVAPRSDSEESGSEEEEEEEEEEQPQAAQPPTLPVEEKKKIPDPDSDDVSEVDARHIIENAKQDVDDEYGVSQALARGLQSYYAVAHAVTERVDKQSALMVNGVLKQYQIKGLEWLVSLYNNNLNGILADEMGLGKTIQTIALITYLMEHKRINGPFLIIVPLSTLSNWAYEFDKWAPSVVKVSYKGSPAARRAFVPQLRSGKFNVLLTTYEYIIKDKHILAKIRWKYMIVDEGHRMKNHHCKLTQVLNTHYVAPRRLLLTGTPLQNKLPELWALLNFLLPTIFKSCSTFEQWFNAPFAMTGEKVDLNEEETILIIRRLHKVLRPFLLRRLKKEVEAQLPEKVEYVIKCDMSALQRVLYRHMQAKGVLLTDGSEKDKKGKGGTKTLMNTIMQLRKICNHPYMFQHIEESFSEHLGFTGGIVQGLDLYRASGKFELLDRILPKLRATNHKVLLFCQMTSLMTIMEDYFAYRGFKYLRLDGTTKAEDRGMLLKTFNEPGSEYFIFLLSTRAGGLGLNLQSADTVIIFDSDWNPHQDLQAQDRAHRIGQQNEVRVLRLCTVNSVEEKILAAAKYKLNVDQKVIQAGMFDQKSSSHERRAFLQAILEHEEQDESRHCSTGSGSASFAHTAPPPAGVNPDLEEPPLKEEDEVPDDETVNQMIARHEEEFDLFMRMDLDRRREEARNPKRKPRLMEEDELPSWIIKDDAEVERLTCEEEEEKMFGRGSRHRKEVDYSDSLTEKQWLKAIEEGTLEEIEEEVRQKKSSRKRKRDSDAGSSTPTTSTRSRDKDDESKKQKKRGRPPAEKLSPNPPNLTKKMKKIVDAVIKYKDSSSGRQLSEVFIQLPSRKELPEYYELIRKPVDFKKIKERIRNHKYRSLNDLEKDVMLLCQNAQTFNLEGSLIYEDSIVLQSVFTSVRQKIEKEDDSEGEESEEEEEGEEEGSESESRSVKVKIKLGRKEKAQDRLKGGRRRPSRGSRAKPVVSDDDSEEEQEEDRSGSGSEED
# Method in brief: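 Seed 5000 HeLa HiBit-BRG1/LgBit cells per well; treat 24 h; equilibrate 15 min at room temperature; add Nano-Glo HiBiT lytic reagent, shake 10 min, read luminescence. Percent degradation is scaled between DMSO and 2 μM reference degrader wells.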
# T1 sequence (P51531 whole entry): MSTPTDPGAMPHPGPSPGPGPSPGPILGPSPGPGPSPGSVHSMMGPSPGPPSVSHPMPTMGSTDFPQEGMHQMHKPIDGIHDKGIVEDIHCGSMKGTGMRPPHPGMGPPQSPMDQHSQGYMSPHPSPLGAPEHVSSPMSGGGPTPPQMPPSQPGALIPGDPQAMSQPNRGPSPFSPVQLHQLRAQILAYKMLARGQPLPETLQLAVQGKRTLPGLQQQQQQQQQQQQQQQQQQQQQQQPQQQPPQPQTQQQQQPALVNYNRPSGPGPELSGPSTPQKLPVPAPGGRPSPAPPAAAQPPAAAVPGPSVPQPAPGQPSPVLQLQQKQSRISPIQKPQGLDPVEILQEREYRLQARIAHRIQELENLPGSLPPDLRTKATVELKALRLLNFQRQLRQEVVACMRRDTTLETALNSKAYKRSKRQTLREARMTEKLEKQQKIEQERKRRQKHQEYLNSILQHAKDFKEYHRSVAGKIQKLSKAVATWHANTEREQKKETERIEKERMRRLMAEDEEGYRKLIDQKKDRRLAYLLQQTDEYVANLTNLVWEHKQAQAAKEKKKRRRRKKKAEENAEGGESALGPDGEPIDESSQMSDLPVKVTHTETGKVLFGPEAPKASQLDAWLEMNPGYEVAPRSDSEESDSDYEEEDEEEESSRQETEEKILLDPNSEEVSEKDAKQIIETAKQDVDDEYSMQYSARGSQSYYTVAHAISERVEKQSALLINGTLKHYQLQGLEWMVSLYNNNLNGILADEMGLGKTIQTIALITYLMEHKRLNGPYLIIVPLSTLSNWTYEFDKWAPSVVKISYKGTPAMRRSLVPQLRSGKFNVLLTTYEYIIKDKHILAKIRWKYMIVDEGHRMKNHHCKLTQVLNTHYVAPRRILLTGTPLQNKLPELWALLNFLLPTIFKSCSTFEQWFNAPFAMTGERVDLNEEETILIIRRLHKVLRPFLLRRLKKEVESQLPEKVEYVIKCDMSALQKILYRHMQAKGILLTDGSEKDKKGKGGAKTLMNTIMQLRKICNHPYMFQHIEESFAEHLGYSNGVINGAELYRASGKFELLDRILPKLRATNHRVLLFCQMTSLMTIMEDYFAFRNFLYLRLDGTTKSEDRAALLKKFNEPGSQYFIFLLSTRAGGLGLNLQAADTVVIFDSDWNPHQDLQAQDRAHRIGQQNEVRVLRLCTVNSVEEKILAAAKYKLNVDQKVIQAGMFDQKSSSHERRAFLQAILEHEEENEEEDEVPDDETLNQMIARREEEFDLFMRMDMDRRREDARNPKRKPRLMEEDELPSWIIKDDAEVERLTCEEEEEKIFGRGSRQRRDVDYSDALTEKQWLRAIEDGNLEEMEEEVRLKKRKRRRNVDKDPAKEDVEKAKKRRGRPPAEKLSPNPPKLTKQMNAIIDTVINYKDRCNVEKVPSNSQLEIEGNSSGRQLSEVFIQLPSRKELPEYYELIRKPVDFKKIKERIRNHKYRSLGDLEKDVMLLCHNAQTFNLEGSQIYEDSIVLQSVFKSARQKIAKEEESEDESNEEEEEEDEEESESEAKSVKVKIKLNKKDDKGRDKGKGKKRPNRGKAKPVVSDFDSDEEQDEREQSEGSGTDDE
Structure (SMILES),DC50 (HiBiT-BRM) [nM],DC50 (HiBit-BRG1) [nM],Dmax (HiBit-BRG1) [%],BRM HiBit Degradation Maximum (%) (HiBiT-BRM)
"CN(CCc1ccc(CNC(=O)CCCCOc2cccc3c2C(=O)N(C2CCC(=O)NC2=O)C3=O)cc1)c1cc(-c2ccccc2O)nnc1N (stereo not drawn) [Compound 146, N-(4-(2-((3-amino-6-(2-hydroxyphenyl)pyridazin-4-yl)(methyl)amino)ethyl)benzyl)-5-((2-(2,6-dioxopiperidin-3-yl)-1,3-dioxoisoindolin-4-yl)oxy)pentanamide]",> 1000,> 1000,< 50,C (“C” indicates maximum degradation <50%)
"Cc1ncsc1-c1ccc(CNC(=O)[C@@H]2C[C@@H](O)CN2C(=O)[C@@H](NC(=O)CN2CCC(O[C@H]3C[C@H](Oc4cc(N5[C@@H]6CC[C@H]5CN(c5cc(-c7ccccc7O)nnc5N)C6)ccn4)C3)CC2)C(C)(C)C)cc1 [Compound 243, (2S,4R)-1-((2S)-2-(2-(4-((1r,3S)-3-((4-(3-(3-amino-6-(2-hydroxyphenyl)pyridazin-4-yl)-3,8-diazabicyclo[3.2.1]octan-8-yl)pyridin-2-yl)oxy)cyclobutoxy)piperidin-1-yl)acetamido)-3,3-dimethylbutanoyl)-4-hydroxy-N-(4-(4-methylthiazol-5-yl)benzyl)pyrrolidine-2-carboxamide, tri-formic acid]",< 10,> 10,> 75,A (“A” indicates maximum degradation ≥75%)
"Nc1nnc(-c2ccccc2O)cc1OCCc1ccc(CNCCCNc2cccc3c2C(=O)N(C2CCC(=O)NC2=O)C3=O)cc1 (stereo not drawn) [Compound 108, 4-[[3-([[4-(2-[[3-amino-6-(2-hydroxyphenyl)pyridazin-4-yl]oxy]ethyl)phenyl]methyl]amino)propyl]amino]-2-(2,6-dioxopiperidin-3-yl)isoindole-1,3-dione, formic acid salt]",> 10,> 1000,> 50,B (“B” indicates maximum degradation ≥50%)
"Cc1ncsc1-c1ccc(CNC(=O)[C@@H]2C[C@@H](O)CN2C(=O)[C@@H](NC(=O)CCCCN2CCN(CCOc3cc(N4[C@@H]5CC[C@H]4CN(c4cc(-c6ccccc6O)nnc4N)C5)ccn3)CC2)C(C)(C)C)cc1 [Compound 234, (2S,4R)-1-((2S)-2-(5-(4-(2-((4-(3-(3-amino-6-(2-hydroxyphenyl)pyridazin-4-yl)-3,8-diazabicyclo[3.2.1]octan-8-yl)pyridin-2-yl)oxy)ethyl)piperazin-1-yl)pentanamido)-3,3-dimethylbutanoyl)-4-hydroxy-N-(4-(4-methylthiazol-5-yl)benzyl)pyrrolidine-2-carboxamide]",> 100,> 1000,< 50,A (“A” indicates maximum degradation ≥75%)
"Nc1nnc(-c2ccccc2O)cc1OCCc1ccc(C(=O)NCCOCCOCCNc2cccc3c2CN(C2CCC(=O)NC2=O)C3=O)cc1 (stereo not drawn) [Compound 54, 4-(2-[[3-amino-6-(2-hydroxyphenyl)pyridazin-4-yl]oxy]ethyl)-N-[2-[2-(2-[[2-(2,6-dioxopiperidin-3-yl)-1-oxo-3H-isoindol-4-yl]amino]ethoxy)ethoxy]ethyl]benzamide]",> 1000,> 1000,< 50,C (“C” indicates maximum degradation <50%)
Nc1nnc(-c2ccccc2O)cc1N1CCN(CCNC(=O)CCCCCCCCNc2ccc3c(c2)C(=O)N(C2CCC(=O)NC2=O)C3=O)CC1 (stereo not drawn) [Compound 92],> 1000,> 1000,< 50,C (“C” indicates maximum degradation <50%)

# More lines, main results first:
DC50 (HiBiT-BRM) [nM],DC50 (HiBit-BRG1) [nM],Dmax (HiBit-BRG1) [%],Structure (SMILES),BRM HiBit Degradation Maximum (%) (HiBiT-BRM)
> 1000,> 1000,< 50,Nc1nnc(-c2ccccc2O)cc1OCCc1ccc(CNC(=O)CCCCCCCCCCNc2cccc3c2C(=O)N(C2CCC(=O)NC2=O)C3=O)cc1 (stereo not drawn) [Compound 72],C (“C” indicates maximum degradation <50%)
> 1000,> 1000,< 50,"Cc1ncsc1-c1ccc(CNC(=O)[C@@H]2C[C@@H](O)CN2C(=O)[C@@H](NC(=O)CCC(=O)NCc2ccc(CCOc3cc(-c4ccccc4O)nnc3N)cc2)C(C)(C)C)cc1 [Compound 29, N′-[[4-(2-[[3-amino-6-(2-hydroxyphenyl)pyridazin-4-yl]oxy]ethyl)phenyl]methyl]-N-[(2S)-1-[(2S,4R)-4-hydroxy-2-([[4-(4-methyl-1,3-thiazol-5-yl)phenyl]methyl]carbamoyl)pyrrolidin-1-yl]-3,3-dimethyl-1-oxobutan-2-yl]succinamide]",B (“B” indicates maximum degradation ≥50%)
> 100,> 1000,< 50,"Cc1ncsc1-c1ccc(CNC(=O)[C@@H]2C[C@@H](O)CN2C(=O)[C@@H](NC(=O)CCCCCCCCCCCCCCCC(=O)NCc2ccc(CCNc3cc(-c4ccccc4O)nnc3N)cc2)C(C)(C)C)cc1 [Compound 136, N′-[[4-(2-[[3-amino-6-(2-hydroxyphenyl)pyridazin-4-yl]amino]ethyl)phenyl]methyl]-N-[(2S)-1-[(2S,4R)-4-hydroxy-2-([[4-(4-methyl-1,3-thiazol-5-yl)phenyl]methyl]carbamoyl)pyrrolidin-1-yl]-3,3-dimethyl-1-oxobutan-2-yl]heptadecanediamide]",B (“B” indicates maximum degradation ≥50%)
> 1000,> 1000,< 50,"Cc1ncsc1-c1ccc(CNC(=O)[C@@H]2C[C@@H](O)CN2C(=O)[C@@H](NC(=O)COCCOCCNC(=O)CN2CCN(c3cc(-c4ccccc4O)nnc3N)CC2)C(C)(C)C)cc1 [Compound 100, (2S,4R)-1-[(2S)-2-(2-[2-[2-(2-[4-[3-amino-6-(2-hydroxyphenyl)pyridazin-4-yl]piperazin-1-yl]acetamido)ethoxy]ethoxy]acetamido)-3,3-dimethylbutanoyl]-4-hydroxy-N-[[4-(4-methyl-1,3-thiazol-5-yl)phenyl]methyl]pyrrolidine-2-carboxamide]",C (“C” indicates maximum degradation <50%)
> 10,> 100,> 75,"Cc1ncsc1-c1ccc([C@H](C)NC(=O)[C@@H]2C[C@@H](O)CN2C(=O)[C@@H](c2cc(OCCN3CC4(C3)CN(C(=O)c3ccc(CCOc5cc(-c6ccccc6O)nnc5N)cc3)C4)no2)C(C)C)cc1 [Compound 208, (2S,4R)-1-[(2R)-2-[3-(2-[6-[4-(2-[[3-amino-6-(2-hydroxyphenyl)pyridazin-4-yl]oxy]ethyl)benzoyl]-2,6-diazaspiro[3.3]heptan-2-yl]ethoxy)-1,2-oxazol-5-yl]-3-methylbutanoyl]-4-hydroxy-N-[(1S)-1-[4-(4-methyl-1,3-thiazol-5-yl)phenyl]ethyl]pyrrolidine-2-carboxamide]",A (“A” indicates maximum degradation ≥75%)
> 1000,> 1000,< 50,"Cc1ncsc1-c1ccc(CNC(=O)[C@@H]2C[C@@H](O)CN2C(=O)[C@@H](NC(=O)CCN2CC(OC3CCN(C(=O)c4ccc(CCOc5cc(-c6ccccc6O)nnc5N)cc4)CC3)C2)C(C)(C)C)cc1 [Compound 238, (2S,4R)-1-((S)-2-(3-(3-((1-(4-(2-((3-amino-6-(2-hydroxyphenyl)pyridazin-4-yl)oxy)ethyl)benzoyl)piperidin-4-yl)oxy)azetidin-1-yl)propanamido)-3,3-dimethylbutanoyl)-4-hydroxy-N-(4-(4-methylthiazol-5-yl)benzyl)pyrrolidine-2-carboxamide]",C (“C” indicates maximum degradation <50%)
